The values below come from PubChem BioAssay (NCI).

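48-hour exposure; five concentrations; linearly interpolated endpoints. TGI denotes the concentration required for complete inhibition of growth.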

Among the test systems are BT-549 breast; CCRF-CEM leukemia; DU-145 prostate; HCT-116 colon; LOX IMVI melanoma; MDA-MB-231 breast; MDA-MB-435; MOLT-4 leukemia; NCI-H226 lung; NCI-H522 lung; OVCAR-8 ovarian; RPMI-8226 leukemia; SF-268 CNS; SF-295 CNS; SNB-75 CNS; T-47D breast; M14 melanoma; SK-OV-3 ovarian.
Experiment in all cases: NCI anticancer screen, dose series, 48 h

For `CC1(C)C[C@H](O)[C@H](O)[C@]23C(=O)O[C@H](O)[C@H]2C(C=O)=CC[C@@H]13`, the TGI with BT-549 breast, in the assay with CCRF-CEM leukemia, in the assay on DU-145 prostate, in the assay on HCT-116 colon, with LOX IMVI melanoma and in the assay on MDA-MB-231 breast was > 100 µM in each case. In addition, the TGI in the assay with MDA-MB-435, in the assay with MOLT-4 leukemia, in the assay with NCI-H226 lung, in the assay on NCI-H522 lung, with OVCAR-8 ovarian and in the assay on RPMI-8226 leukemia was > 100 µM throughout. For the same molecule, the TGI in the assay with SF-268 CNS, in the assay with SF-295 CNS, in the assay on SNB-75 CNS and with T-47D breast was > 100 µM in each case.
Take `COc1ccc(C2SCC(=O)N2NC(=O)C(C)Oc2ccccc2Cl)cc1` (stereo unspecified): the TGI with BT-549 breast is > 100 µM; in the assay with CCRF-CEM leukemia, 79.6 µM; in the assay on DU-145 prostate, > 100 µM; in the assay with HCT-116 colon it was > 100 µM; in the assay on LOX IMVI melanoma, 62 µM; in the assay on M14 melanoma, > 100 µM. For the same molecule, the TGI is > 100 µM in the assay with MDA-MB-231 breast; > 100 µM with MDA-MB-435; 79.5 µM in the assay on MOLT-4 leukemia; > 100 µM with NCI-H226 lung; > 100 µM with NCI-H522 lung; > 100 µM in the assay with OVCAR-8 ovarian. Also, the TGI in the assay on RPMI-8226 leukemia, with SF-268 CNS, with SF-295 CNS, in the assay with SNB-75 CNS and in the assay with T-47D breast was > 100 µM each time.
Consider `CC(=N/NC(=S)N1CCCCC1)/C(C)=N\NC(=S)N1CCCCC1`, for which the TGI in the assay on BT-549 breast is 3.38 µM; in the assay on DU-145 prostate it was 3.05 µM; in the assay with LOX IMVI melanoma, > 100 µM; in the assay with M14 melanoma, 4.57 µM; with MDA-MB-231 breast it was 5.63 µM; in the assay on MDA-MB-435, 3.79 µM. The TGI was > 100 µM with MOLT-4 leukemia; 3 µM with NCI-H226 lung; 4.74 µM in the assay on NCI-H522 lung; 5.13 µM in the assay on RPMI-8226 leukemia; 3.45 µM with SF-268 CNS; 3.74 µM with SF-295 CNS. The TGI was determined as 3.32 µM in the assay on SK-OV-3 ovarian, 3.14 µM in the assay on SNB-75 CNS and 3.27 µM in the assay on T-47D breast.
Take `COc1cc2c3c(n(Cc4ccccc4)c(=O)c2cc1OC)-c1ccccc1C3=O`: the TGI with BT-549 breast, with CCRF-CEM leukemia, in the assay on DU-145 prostate, with HCT-116 colon, in the assay on LOX IMVI melanoma and with M14 melanoma was > 100 µM in each case. The TGI with MDA-MB-231 breast, with MDA-MB-435, in the assay on MOLT-4 leukemia, in the assay on NCI-H226 lung, in the assay with NCI-H522 lung and in the assay with OVCAR-8 ovarian was > 100 µM throughout. In addition, the TGI in the assay on RPMI-8226 leukemia, in the assay on SF-268 CNS, in the assay on SF-295 CNS, with SNB-75 CNS and in the assay on T-47D breast was > 100 µM throughout.
As to `CC(=O)O[C@H]1CC[C@@]2(C)C(=CC[C@@H]3[C@@H]2CC[C@]2(C)c4c(cc(C#N)c(=N)n4C(C)=O)C[C@@H]32)C1`, the TGI came to 34.8 µM in the assay with BT-549 breast; 23.2 µM in the assay on CCRF-CEM leukemia; 79.3 µM in the assay on DU-145 prostate; 28.5 µM in the assay with HCT-116 colon; 30.8 µM in the assay on LOX IMVI melanoma; 32.5 µM in the assay on M14 melanoma. The TGI worked out at 77.9 µM in the assay with MDA-MB-231 breast; 38.5 µM in the assay on MDA-MB-435; 35.8 µM with MOLT-4 leukemia; 72.8 µM with NCI-H226 lung; 35.9 µM in the assay on NCI-H522 lung; 37.6 µM in the assay with OVCAR-8 ovarian. The TGI worked out at 62.7 µM in the assay with SF-268 CNS; 29.6 µM in the assay with SF-295 CNS; 34.5 µM with SK-OV-3 ovarian; 44.9 µM in the assay with SNB-75 CNS; 46.9 µM with T-47D breast.
Turning to `Nn1c(SCC(=O)NCc2ccccc2)nc2ccccc2c1=O`, the TGI is > 100 µM in the assay with BT-549 breast; > 100 µM with CCRF-CEM leukemia; > 100 µM with DU-145 prostate; 93.1 µM with HCT-116 colon; > 100 µM in the assay with LOX IMVI melanoma; > 100 µM with M14 melanoma. Besides, the TGI in the assay on MDA-MB-231 breast was > 100 µM; in the assay on MDA-MB-435, > 100 µM; in the assay with MOLT-4 leukemia, 49.5 µM; in the assay with NCI-H226 lung, > 100 µM; in the assay with NCI-H522 lung it was > 100 µM; in the assay on OVCAR-8 ovarian it was > 100 µM. Also, the TGI in the assay on RPMI-8226 leukemia, with SF-268 CNS, in the assay on SF-295 CNS, in the assay on SNB-75 CNS and in the assay with T-47D breast was > 100 µM in each case.
In the case of `CC(=O)N1N=C(N)CC1=O`, the TGI in the assay on BT-549 breast, in the assay on CCRF-CEM leukemia, with DU-145 prostate, in the assay on HCT-116 colon, in the assay with LOX IMVI melanoma and in the assay on M14 melanoma was > 100 µM in each case. For the same molecule, the TGI in the assay with MDA-MB-231 breast, in the assay on MDA-MB-435, in the assay on MOLT-4 leukemia, in the assay on NCI-H226 lung, in the assay on NCI-H522 lung and in the assay with OVCAR-8 ovarian was > 100 µM throughout. Moreover, the TGI in the assay on SF-268 CNS, with SF-295 CNS, in the assay with SK-OV-3 ovarian, in the assay with SNB-75 CNS and in the assay with T-47D breast was > 100 µM throughout.
